Patent publication US9708314B2, “Heterocyclic amide compound” (NISSAN CHEMICAL INDUSTRIES, LTD., priority 2013, dated 2017)

Tests used:
Format in all cases: in vivo
[1] = tested on: transplanted Oryza sativa; experiment: Test Example 1: effect on crop, application before weed generation in submerged conditions; settings: Application herbicide amount 320 g/ha; Seventeenth Table
Source text: (§1) [Test Example 1] Herbicidal Activity Test by Application Before Weed Generation in Submerged Conditions After alluvial soil was placed into 1/10000 are of Wagner pot, water was poured and mixed to form a submerged condition having a water depth of 4 cm. Seeds of Echinochloa oryzacola Vasing., Scirpus juncoides, and Monochoria vaginalis were sowed in a mixed manner in the above pot and thereafter 2.5 leaf stage Oryza sativa seedling was transplanted. On the day of sowing seeds, the emulsion agent containing the compound of the present invention prepared in accordance with Formulation Example 2 was diluted with water so as to be a predetermined herbicide amount and the diluted compound was applied to the surface of the water. The pot was placed in a greenhouse of 25° C. to 30° C. to grow plant. Three weeks after the herbicide application, effects on each plant were investigated in accordance with the following criteria. Criteria 5 Herbicidal ratio of 90% or more (almost completely withered) 4 Herbicidal ratio of 70% or more and less than 90% 3 Herbicidal ratio of 40% or more and less than 70% 2 Herbicidal ratio of 20% or more and less than 40% 1 Herbicidal ratio of 5% or more and less than 20% 0 Herbicidal ratio of 5% or less (almost no effect) A: Echinochloa oryzicola Vasing., B: Scirpus juncoides, C: Monochoria vaginalis, D: Leptochloa chinensis, E: Cyperus difformis, F: Digitaria ciliaris, G: Setaria viridis, H: Echinochloa crus-galli var. crus-galli, I: Avena fatua, J: Alopecurus myosuroides, K: Lolium multiflorum Lam., L: Apera spica-venti., M: Abutilon theophrasti, N: Amaranthus retroflexus, O: Chenopodium album, P: Stellaria media, Q: Galium spurium, R: Veronica persica, a: transplanted Oryza sativa, b: directly sowed Oryza sativa, c: Zea mays, d: Glycine max, e: Triticum aestivum, f: Beta vulgaris ssp. vulgaris, and g: Brassica campestris L. The application herbicide amount (g/ha) means an amount that a concentration is adjusted so that, when an application amount is converted into per hectare (1 ha), the herbicide is applied by the number of grams (g) of the described value.

Zea mays = experiment: Test Example 4: effect on crop by application to foliage (diluvial soil, plastic box); settings: application to foliage
In short: (§2)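 Plants were grown in sterilized diluvial soil in a greenhouse at 25-30° C for 14 days, then sprayed on stems and leaves with water-diluted emulsion formulation at set rates in g/ha. Weed control and crop injury were scored 3 weeks after treatment on a 0-5 herbicidal-ratio scale, from 0 (≤5%) to 5 (≥90%).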

Brassica campestris L. = experiment: as above; settings: application to foliage
In short: as §2

[2] = tested on: directly sowed Oryza sativa; experiment: as above; settings: application to foliage
In short: as §2

Glycine max = experiment: as above; settings: application to foliage
In short: as §2

Triticum aestivum = experiment: as above; settings: application to foliage
In short: as §2

[3] = tested on: Beta vulgaris ssp. vulgaris; experiment: as above; settings: application to foliage
In short: as §2

[4] = tested on: Echinochloa crus-galli var. crus-galli; experiment: Test Example 4: herbicidal effect by application to foliage (diluvial soil, plastic box); settings: application to foliage
Source text: (§3) 5 Herbicidal ratio of 90% or more (almost completely withered) 4 Herbicidal ratio of 70% or more and less than 90% 3 Herbicidal ratio of 40% or more and less than 70% 2 Herbicidal ratio of 20% or more and less than 40% 1 Herbicidal ratio of 5% or more and less than 20% 0 Herbicidal ratio of 5% or less (almost no effect) [Test Example 4] Herbicidal Effect Test by Application to Foliage Sterilized diluvial soil was placed in a plastic box having a length of 21 cm, a width of 13 cm, and a depth of 7 cm. Each of the seeds of Digitaria ciliaris, Setaria viridis, Echinochloa crus-galli var. crus-galli, Avena fatua, Alopecurus myosuroides, Lolium multiflorum Lam., Apera spica-venti., Abutilon theophrasti, Amaranthus retroflexus, Chenopodium album, Stellaria media, Galium spurium, Veronica persica, Zea mays, Glycine max, Oryza sativa, Triticum aestivum, Beta vulgaris ssp. vulgaris, and Brassica campestris L. was sowed in a spot-like manner and was covered with the soil of about 1.5 cm thick. Thereafter, the plants were grown in the greenhouse of 25° C. to 30° C. After the plants were grown for 14 days, the emulsion agent containing the compound of the present invention prepared in accordance with Formulation Example 2 was diluted with water so as to be a predetermined herbicide amount and the diluted compound was uniformly applied to a stem and leaf part with a small-size spray. Three weeks after the herbicide application, effects on each plant were investigated in accordance with the criteria of Test Example 1. A: Echinochloa oryzicola Vasing., B: Scirpus juncoides, C: Monochoria vaginalis, D: Leptochloa chinensis, E: Cyperus difformis, F: Digitaria ciliaris, G: Setaria viridis, H: Echinochloa crus-galli var. crus-galli, I: Avena fatua, J: Alopecurus myosuroides, K: Lolium multiflorum Lam., L: Apera spica-venti., M: Abutilon theophrasti, N: Amaranthus retroflexus, O: Chenopodium album, P: Stellaria media, Q: Galium spurium, R: Veronica persica, a: transplanted Oryza sativa, b: directly sowed Oryza sativa, c: Zea mays, d: Glycine max, e: Triticum aestivum, f: Beta vulgaris ssp. vulgaris, and g: Brassica campestris L. The application herbicide amount (g/ha) means an amount that a concentration is adjusted so that, when an application amount is converted into per hectare (1 ha), the herbicide is applied by the number of grams (g) of the described value.

Veronica persica = experiment: as above; settings: application to foliage
Source text: as §3

Galium spurium = experiment: as above; settings: application to foliage
Source text: as §3

Digitaria ciliaris = experiment: as above; settings: application to foliage
Source text: as §3

Amaranthus retroflexus = experiment: as above; settings: application to foliage
Source text: as §3

Abutilon theophrasti = experiment: as above; settings: application to foliage
Source text: as §3

Lolium multiflorum Lam. = experiment: as above; settings: application to foliage
Source text: as §3

Apera spica-venti. = experiment: as above; settings: application to foliage
Source text: as §3

Chenopodium album = experiment: as above; settings: application to foliage
Source text: as §3

Setaria viridis = experiment: as above; settings: application to foliage
Source text: as §3

Alopecurus myosuroides = experiment: as above; settings: application to foliage
Source text: as §3

Avena fatua = experiment: as above; settings: application to foliage
Source text: as §3

Stellaria media = experiment: as above; settings: application to foliage
Source text: as §3

Scirpus juncoides = experiment: Test Example 1: herbicidal activity, application before weed generation in submerged conditions; settings: Application herbicide amount 320 g/ha; Seventeenth Table
Source text: as §1

Monochoria vaginalis = experiment: as above; settings: Application herbicide amount 320 g/ha; Seventeenth Table
Source text: as §1

[5] = tested on: Echinochloa crus-galli var. crus-galli; experiment: Test Example 3: herbicidal effect by application to foliage (Wagner pot, water depth 0.1-0.5 cm); settings: Nineteenth Table; application to foliage; application herbicide amount 320 g/ha
Source text: (§4) 5 Herbicidal ratio of 90% or more (almost completely withered) 4 Herbicidal ratio of 70% or more and less than 90% 3 Herbicidal ratio of 40% or more and less than 70% 2 Herbicidal ratio of 20% or more and less than 40% 1 Herbicidal ratio of 5% or more and less than 20% 0 Herbicidal ratio of 5% or less (almost no effect) [Test Example 3] Herbicidal Effect Test by Application to Foliage After alluvial soil was placed into 1/10000 are of Wagner pot, water was poured and mixed to form a condition having a water depth of 0.1 cm to 0.5 cm. Seeds of Echinochloa crus-galli var. crus-galli, Leptochloa chinensis, Cyperus difformis, and Oryza sativa were sowed and the pot was placed in the greenhouse of 25° C. to 30° C. to grow the plants. After the plants were grown for 14 days, the emulsion agent containing the compound of the present invention prepared in accordance with Formulation Example 2 was diluted with water so as to be a predetermined herbicide amount and the diluted compound was uniformly applied to a stem and leaf part with a small-size spray. Three weeks after the herbicide application, effects on each plant were investigated in accordance with the criteria of Test Example 1. A: Echinochloa oryzicola Vasing., B: Scirpus juncoides, C: Monochoria vaginalis, D: Leptochloa chinensis, E: Cyperus difformis, F: Digitaria ciliaris, G: Setaria viridis, H: Echinochloa crus-galli var. crus-galli, I: Avena fatua, J: Alopecurus myosuroides, K: Lolium multiflorum Lam., L: Apera spica-venti., M: Abutilon theophrasti, N: Amaranthus retroflexus, O: Chenopodium album, P: Stellaria media, Q: Galium spurium, R: Veronica persica, a: transplanted Oryza sativa, b: directly sowed Oryza sativa, c: Zea mays, d: Glycine max, e: Triticum aestivum, f: Beta vulgaris ssp. vulgaris, and g: Brassica campestris L. The application herbicide amount (g/ha) means an amount that a concentration is adjusted so that, when an application amount is converted into per hectare (1 ha), the herbicide is applied by the number of grams (g) of the described value.

Leptochloa chinensis = experiment: as above; settings: Nineteenth Table; application to foliage; application herbicide amount 320 g/ha
Source text: as §4

Cyperus difformis = experiment: as above; settings: Nineteenth Table; application to foliage; application herbicide amount 320 g/ha
Source text: as §4

[6] = application herbicide amount 320 g/ha

Structure (SMILES): CC#Cc1nnc2c(C(=O)Nc3nnc(C)o3)ccc(C(F)(F)F)n12 [1-161]
- a: transplanted Oryza sativa (effect on crop grade) [1]: 0 (Herbicidal ratio of 5% or less (almost no effect))
- c: effect on crop, Zea mays (Zea mays; [6]): 0 (Herbicidal ratio of 5% or less (almost no effect))
- g: effect on crop, Brassica campestris L. (Brassica campestris L.; [6]): 0 (Herbicidal ratio of 5% or less (almost no effect))
- b: effect on crop, directly sowed Oryza sativa [2, 6]: 0 (Herbicidal ratio of 5% or less (almost no effect))
- d: effect on crop, Glycine max (Glycine max; [6]): 1 (Herbicidal ratio of 5% or more and less than 20%)
- e: effect on crop, Triticum aestivum (Triticum aestivum; [6]): 0 (Herbicidal ratio of 5% or less (almost no effect))
- f: effect on crop, Beta vulgaris ssp. vulgaris [3, 6]: 1 (Herbicidal ratio of 5% or more and less than 20%)
- H: herbicidal effect on Echinochloa crus-galli var. crus-galli [4, 6]: 3 (Herbicidal ratio of 40% or more and less than 70%)
- R: herbicidal effect on Veronica persica (Veronica persica; [6]): 1 (Herbicidal ratio of 5% or more and less than 20%)
- Q: herbicidal effect on Galium spurium (Galium spurium; [6]): 0 (Herbicidal ratio of 5% or less (almost no effect))
- F: herbicidal effect on Digitaria ciliaris (Digitaria ciliaris; [6]): 3 (Herbicidal ratio of 40% or more and less than 70%)
- N: herbicidal effect on Amaranthus retroflexus (Amaranthus retroflexus; [6]): 0 (Herbicidal ratio of 5% or less (almost no effect))
- M: herbicidal effect on Abutilon theophrasti (Abutilon theophrasti; [6]): 1 (Herbicidal ratio of 5% or more and less than 20%)
- K: herbicidal effect on Lolium multiflorum Lam. (Lolium multiflorum Lam.; [6]): 0 (Herbicidal ratio of 5% or less (almost no effect))
- L: herbicidal effect on Apera spica-venti. (Apera spica-venti.; [6]): 0 (Herbicidal ratio of 5% or less (almost no effect))
- O: herbicidal effect on Chenopodium album (Chenopodium album; [6]): 4 (Herbicidal ratio of 70% or more and less than 90%)
- G: herbicidal effect on Setaria viridis (Setaria viridis; [6]): 0 (Herbicidal ratio of 5% or less (almost no effect))
- J: herbicidal effect on Alopecurus myosuroides (Alopecurus myosuroides; [6]): 0 (Herbicidal ratio of 5% or less (almost no effect))
- I: herbicidal effect on Avena fatua (Avena fatua; [6]): 0 (Herbicidal ratio of 5% or less (almost no effect))
- P: herbicidal effect on Stellaria media (Stellaria media; [6]): 0 (Herbicidal ratio of 5% or less (almost no effect))
- B: Scirpus juncoides (herbicidal effect grade) (Scirpus juncoides): 2 (Herbicidal ratio of 20% or more and less than 40%)
- C: Monochoria vaginalis (herbicidal effect grade) (Monochoria vaginalis): 0 (Herbicidal ratio of 5% or less (almost no effect))

Structure (SMILES): CCOC(=O)Cn1nnnc1NC(=O)c1ccc(C(F)(F)F)n2c(C(C)C)nnc12 [2-092]
- effect on crop, b (Zea mays) (Zea mays; 320 g/ha): 0 (Herbicidal ratio of 5% or less (almost no effect))
- effect on crop, g (Brassica campestris L.) (Brassica campestris L.; 320 g/ha): 0 (Herbicidal ratio of 5% or less (almost no effect))
- effect on crop, d (directly sowed Oryza sativa) ([2]; 320 g/ha): 1 (Herbicidal ratio of 5% or more and less than 20%)
- effect on crop, c (Glycine max) (Glycine max; 320 g/ha): 0 (Herbicidal ratio of 5% or less (almost no effect))
- effect on crop, e (Triticum aestivum) (Triticum aestivum; 320 g/ha): 0 (Herbicidal ratio of 5% or less (almost no effect))
- effect on crop, f (Beta vulgaris ssp. vulgaris) ([3]; 320 g/ha): 3 (Herbicidal ratio of 40% or more and less than 70%)
- herbicidal effect, H (Echinochloa crus-galli var. crus-galli) ([4]; 320 g/ha): 2 (Herbicidal ratio of 20% or more and less than 40%)
- herbicidal effect, R (Veronica persica) (Veronica persica; 320 g/ha): 1 (Herbicidal ratio of 5% or more and less than 20%)
- herbicidal effect, Q (Galium spurium) (Galium spurium; 320 g/ha): 1 (Herbicidal ratio of 5% or more and less than 20%)
- herbicidal effect, F (Digitaria ciliaris) (Digitaria ciliaris; 320 g/ha): 0 (Herbicidal ratio of 5% or less (almost no effect))
- herbicidal effect, N (Amaranthus retroflexus) (Amaranthus retroflexus; 320 g/ha): 1 (Herbicidal ratio of 5% or more and less than 20%)
- herbicidal effect, M (Abutilon theophrasti) (Abutilon theophrasti; 320 g/ha): 1 (Herbicidal ratio of 5% or more and less than 20%)
- herbicidal effect, K (Lolium multiflorum Lam.) (Lolium multiflorum Lam.; 320 g/ha): 0 (Herbicidal ratio of 5% or less (almost no effect))
- herbicidal effect, L (Apera spica-venti.) (Apera spica-venti.; 320 g/ha): 0 (Herbicidal ratio of 5% or less (almost no effect))
- herbicidal effect, O (Chenopodium album) (Chenopodium album; 320 g/ha): 3 (Herbicidal ratio of 40% or more and less than 70%)
- herbicidal effect, G (Setaria viridis) (Setaria viridis; 320 g/ha): 0 (Herbicidal ratio of 5% or less (almost no effect))
- herbicidal effect, J (Alopecurus myosuroides) (Alopecurus myosuroides; 320 g/ha): 0 (Herbicidal ratio of 5% or less (almost no effect))
- herbicidal effect, I (Avena fatua) (Avena fatua; 320 g/ha): 1 (Herbicidal ratio of 5% or more and less than 20%)
- herbicidal effect, P (Stellaria media) (Stellaria media; 320 g/ha): 3 (Herbicidal ratio of 40% or more and less than 70%)
- H (herbicidal effect grade) [5]: 2 (Herbicidal ratio of 20% or more and less than 40%)
- D (herbicidal effect grade) (Leptochloa chinensis): 3 (Herbicidal ratio of 40% or more and less than 70%)
- E (herbicidal effect grade) (Cyperus difformis): 2 (Herbicidal ratio of 20% or more and less than 40%)
